Test results: patent publication US8313766B2, “Oral antidepressant formulation with reduced excipient load” (priority 2010, dated 2012)
≈ marks a conversion by molar mass, not a printed value.

Columns and labels:
[1] = CX-157 solubility in candidate solvents, test tube method; format: physicochemical; details: organic solvent or mixture, thermodynamic from solid, CX-157 Form A
Experimental: Ethanol, acetone and methylene chloride were selected and tested as candidate solvents. CX-157 solubility in the solvent was performed using a test tube method. A specific amount of CX-157 (Form A: disclosed in U.S. Pat. Pub. No. 2008/0009542 herein incorporated by reference in it entirety) was added into 1 mL test solvent and the sample was agitated vigorously by a Beadbeater (BB). If CX-157 was completely soluble in 1 mL of test solvent, additional CX-157 was added until excess solid was present. The solubility (mg/mL) of CX-157 was calculated by the amount (mass) of CX-157 added to the test solvent (1 mL). Acetone had the highest solubility of the solvents tested with a solubility of from about 60 mg/mL to about 80 mg/mL at room temperature.

[2] = Solubility of CX-157 in water (descriptive statement); format: physicochemical
[3] = human plasma, oral dose of 200 mg in a capsule with food; cited from earlier work

Compound | solubility ([1]; solvent acetone, at room temperature) [mg/mL] | solubility ([1]; solvent ethanol, at 60° C.) [mg/mL] | solubility ([1]; solvent methylene chloride, at room temperature) [mg/mL] | solubility in water [2] | Tmax [3] [h] | time after dosing at which non-detectable levels observed [3] [h]
O=S1(=O)c2ccc(F)cc2Oc2cc(OCC(F)(F)F)ccc21 [CX-157, 3-fluoro-7-(2,2,2-trifluoroethoxy)phenoxathiin 10,10-dioxide] | 60 to 80 (≈ 172 to 230 mM) | < 10 | < 20 | only sparing solubility | – | –
NCCc1ccc(O)cc1 [tyramine] | – | – | – | – | ≤ 1.25 | 3 to 4
